Results on 3 molecules are retold here after ChEMBL document CHEMBL1132708, “Synthesis and voltage-clamp studies of methyl 1,4-dihydro-2, 6-dimethyl-5-nitro-4-(benzofurazanyl)pyridine-3-carboxylate racemates and enantiomers and of their benzofuroxanyl analogues” (J Med Chem, 1999).

Holding throughout (format): functional
Data set [1] has as its target T1, Voltage-gated L-type calcium channel (Rattus norvegicus, UniProt P22002+Q02485+P27732). The experiment in a line: Percent block of total Ba2+ current on L-type [Ca2+] channels in rat RIN-m5F at 3 insulinoma cells (n = 12).
The target in data set [2] is T1, Voltage-gated L-type calcium channel. The experiment in a line: Percent increase in current at -20 mV on L-type [Ca2+] channels in rat RIN-m5F at 3 insulinoma cells (n = 5).
Data set [3] shares this target. Nature of the data set: Percent increase in current at -20 mV on L-type [Ca2+] channels in rat RIN-m5F at 3 insulinoma cells (n = 8).

Consider `CO/C(O)=C1\C(C)=NC(C)=C([N+](=O)[O-])C1c1cccc2nonc12` (single isomer, unassigned; (+)), for which the Increase in data set [1] is recorded as 164%.

As to `CO/C(O)=C1\C(C)=NC(C)=C([N+](=O)[O-])C1c1ccc2nonc2c1` (single isomer, unassigned; (+)), in data set [2], the Increase stood at 224%.

Regarding `CO/C(O)=C1\C(C)=NC(C)=C([N+](=O)[O-])C1c1ccc2nonc2c1` (racemic), the Increase in data set [3] came out at 247%.
